From patent publication US9403806B1, “Cognition enhancing compounds and compositions, methods of making, and methods of treating” (NeuroSolis, Inc., priority 2010, dated 2016)
Like-named read-outs stand apart in the source and are kept apart here.

What was measured:
[1] = system: pooled male human liver microsomes; test: Metabolism by human liver microsomes, Example 33; assay type: in vitro ADME; settings: for metabolism in human liver microsomes (in words): 6 hours incubation (FIGS. 4A, 4B); for rate of metabolism of S- versus R-enantiomer: human liver microsomes, as also in rat liver microsomes and FMO Supersomes
Procedure: Compounds were incubated with pooled male human liver microsomes (BD Biosciences, #452172) and an NADP-regenerating system in a phosphate buffer (pH 7.4) for a total of 6 hours. Aliquots were removed every 2 hours, and 1% formic acid was added to halt the reaction. Samples were centrifuged, filtered through 0.2 micron spinfilter and the amount of each compound in the supernatants was quantitated using LC/MS/MS.

[2] = target: T1, human muscarinic M1 receptors (Homo sapiens, UniProt P11229); test: IP production in A9L cells with human M1 receptors (IPOne TR-FRET), Example 28; assay type: cell-based; settings: for huM1/A9L Smax: percentage of maximal stimulation by carbachol; for huM1/A9L ED50 relative to CCh*: potency relative to carbachol at its EC50, semi-quantitative
T1 construct: host or cells: A9L cells
T1 sequence (P11229 1-460): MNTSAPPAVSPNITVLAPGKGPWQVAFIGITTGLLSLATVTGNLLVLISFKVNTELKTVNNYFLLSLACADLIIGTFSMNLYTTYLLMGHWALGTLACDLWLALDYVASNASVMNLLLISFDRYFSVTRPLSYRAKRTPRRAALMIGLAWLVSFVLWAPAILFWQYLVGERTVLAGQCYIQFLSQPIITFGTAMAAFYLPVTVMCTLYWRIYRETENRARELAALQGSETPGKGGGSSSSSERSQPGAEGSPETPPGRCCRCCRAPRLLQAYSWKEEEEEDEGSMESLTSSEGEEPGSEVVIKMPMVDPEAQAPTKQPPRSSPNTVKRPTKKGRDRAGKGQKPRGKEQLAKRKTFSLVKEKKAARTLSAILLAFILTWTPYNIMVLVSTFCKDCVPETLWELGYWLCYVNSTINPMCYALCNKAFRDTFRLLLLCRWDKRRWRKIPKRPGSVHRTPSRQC
Procedure: (§1) Muscarinic M1 and M3 agonist activity was evaluated by measuring the stimulation of inositol phosphate (IP) production in the presence of lithium chloride from A9L cells transfected with expression plasmids containing human muscarinic M1 and M3 receptors, respectively. The cell lines were a gift from Professor W Messer, and the methods were as described in Tejada F R et al. J. Med. Chem. 2006; 49: 7518-31 except that the assay was scaled down to run in 384 well plates, and IP was measured in the cell lysates using the non-isotopic IPOne TR-FRET assay (CIS-BIO, Inc).
(§2) Cells were grown to 90% confluence in 384 well hi-base plates (Greiner Bio-One), compounds were added at suitable concentrations in growth medium containing 10 mM LiCl, buffered with an extra 10 mM HEPES (pH7.4), and incubated for 60 minutes at 37° C. Cells were lysed and assayed for IP following the manufacturer's instructions.
(§3) The value for a full agonist is 100%, while partial agonists give values below 100%.

[3] = target: T2, human muscarinic M3 receptors (Homo sapiens, UniProt P20309); test: IP production in A9L cells with human M3 receptors (IPOne TR-FRET), Example 28; assay type: cell-based; settings: for huM3/A9L Smax: percentage of maximal stimulation by carbachol; for huM3/A9L ED50 relative to CCh*: potency relative to carbachol at its EC50, semi-quantitative
T2 construct: host or cells: A9L cells
T2 sequence (P20309 whole entry): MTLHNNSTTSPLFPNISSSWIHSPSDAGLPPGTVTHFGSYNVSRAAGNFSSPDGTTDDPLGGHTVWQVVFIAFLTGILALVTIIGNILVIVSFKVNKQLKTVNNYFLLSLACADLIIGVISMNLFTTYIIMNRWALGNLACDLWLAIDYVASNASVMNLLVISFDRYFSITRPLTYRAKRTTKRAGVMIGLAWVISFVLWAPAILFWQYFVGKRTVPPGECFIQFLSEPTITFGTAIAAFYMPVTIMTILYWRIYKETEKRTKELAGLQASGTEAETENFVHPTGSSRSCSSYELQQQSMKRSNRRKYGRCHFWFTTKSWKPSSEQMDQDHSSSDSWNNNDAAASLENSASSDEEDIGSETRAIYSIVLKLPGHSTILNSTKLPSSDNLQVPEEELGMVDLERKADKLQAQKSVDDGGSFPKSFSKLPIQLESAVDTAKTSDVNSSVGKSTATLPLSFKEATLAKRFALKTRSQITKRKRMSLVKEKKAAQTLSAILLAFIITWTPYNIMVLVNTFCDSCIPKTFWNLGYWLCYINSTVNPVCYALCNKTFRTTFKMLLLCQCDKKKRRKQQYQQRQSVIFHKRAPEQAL
Procedure: as §1, §2, §3

[4] = system: pooled male human liver microsomes; test: Metabolism in human liver microsomes, Example 45; assay type: in vitro ADME
Procedure: Aliquots were removed every 2 hours, and 1% formic acid was added to halt the reaction. Samples were centrifuged, filtered through 0.2 micron spinfilter, and the amount of each compound in the supernatants was quantitated using LC/MS/MS as follows. The ultra-filtrates were subjected to reverse-phase liquid chromatography using a 150×2.1 mm Agilent C8-reverse phase column on a Shimadzu Prominence LC, eluting the compound with a gradient of 2%-50% acetonitrile+0.1% formic acid over 5 minutes. The concentration of the compound in the column effluent was measured using an Applied Biosystems API-3200 triple quadrupole mass spectrometer equipped with a Turbo V source (electrospray sample injection) system. The counts of the characteristic parent ions of the protonated compound and product ions were converted to concentration by comparison with a standard calibration curve. The parent/daughter ion pairs that were monitored for each compound were: 166.0/82.0 (105), 166.0/82.0 (106b), 166.0/82.0 (106a), 169.0/83.0 (136), 168.2/83.0 (121), 168.1/83.0 (122a), 168.1/83.0 (122b), 170.2/83.0 (134), 168.2/84.1 (135), 168.1/84.1 (137) and 169.2/82.1 (138).

[5] = system: muscarinic M1 receptors in the hippocampus; test: In vivo inositol phosphate increase in hippocampus, Example 44; set-up: species or system Long Evans Hooded rats; settings: rat, 3 mg/kg sc, 5 mmole/kg LiCl
Procedure: (§4) In lithium chloride-treated laboratory rodents, engagement of muscarinic M1 receptors in the hippocampus may usefully be evaluated in vivo by measuring the increase in the tissue of inositol phosphate (Bymaster F P et al Brain Res 795 (1998) 179-190). This may also be extended to measure engagement of muscaric M3 receptors in the salivary glands.
(§5) Experimental compounds were administered subcutaneously at 3 mg/kg using standard techniques to Long Evans Hooded rats weighing 225 to 350 g, and which had been pretreated with a subcutaneous injection of lithium chloride at a suitable dose between 3 and 5 mmole/kg. At suitable times the animals were briefly anesthetized using 5% isoflurane and euthanized by decapitation. The brains and submaxillary salivary glands were rapidly dissected out, and the hippocampuses were dissected from the brains. The dissected tissues were homogenized in a suitable volume of ice-cold phosphate-buffered saline containing 10 mM lithium chloride (pH=7.4) using a tissue homogenizer, and used immediately or frozen in aliquots at −80° C. for future use. The concentration of inositol-1-phosphate was determined in the homogenates using the […] IP-One Terbium TR-FRET assay kit (Cisbio Bioassays, cat. #62IPAPEJ) according to the manufacturer's instructions.

[6] = target: T1, human muscarinic M1 receptors; assay type: cell-based; settings: for huM1/A9L Smax: percentage of maximal stimulation by carbachol; for huM1/A9L Potency relative to carbachol: relative to the potency of carbachol at its EC50
Procedure: (§6) Muscarinic M1 and M3 agonist activity was evaluated by measuring the stimulation of inositol phosphate (IP) production in the presence of lithium chloride from A9L cells transfected with expression plasmids containing human muscarinic M1 and M3 receptors, respectively. The cell lines were a gift from Professor William Messer, and the methods were as described in Tejada et al. (J. Med. Chem. 2006; 49: 7518-31) except that the assay was scaled down to run in 384-well plates and the concentration of inositol-1-phosphate in the lysates was determined using the non-isotopic IP-One Terbium TR-FRET assay kit (Cisbio Bioassays, cat. #62IPAPEJ) according to the manufacturer's instructions.
as §2, with “384-well high-base, small-volume” for “384 well hi-base”, “(pH=7.4),” for “(pH7.4),”
as §3

[7] = target: T2, human muscarinic M3 receptors; assay type: cell-based; settings: for huM3/A9L Smax: percentage of maximal stimulation by carbachol; for huM3/A9L Potency relative to carbachol: relative to the potency of carbachol at its EC50
Procedure: as §6
as §2, with “384-well high-base, small-volume” for “384 well hi-base”, “(pH=7.4),” for “(pH7.4),”
as §3

in vitro = in vitro ADME; settings: pH 7.4, 24 hours, room temperature
Procedure: PAMPA is a useful in vitro model for predicting the passive diffusion of drugs across the blood-brain barrier (Li, D et al Eur jour of Med Chem 38 (2003) 223-232).
Compounds were diluted in a 100 mM phosphate buffer (pH 7.4) to a concentration of 400 μM and the stock solutions were placed into a 96-well filter plate (Millipore, #MAIPN4510) pre-wetted with 20 mg/mL porcine brain polar lipid extract in 100% dodecane (Avanti, #131022) and placed into a 96-well acceptor plate (Millipore, #MSSACCEPTOR) whose wells were filled with the same phosphate buffer as in the filter plate. This assembly was incubated at room temperature for 24 hours. The experiment was halted by separating the filter plate from the acceptor plate. Aliquots were removed from the filter plate wells, acceptor plate wells, and stock solutions, and 1% trifluoroacetic acid was added to each. All solutions were measured by LC/UV, and passive diffusion rates were calculated using the peak area values (Avdeef, Alex. 2003. Page 147 in Absorption and Drug Development. Hoboken, N.J.: John Wiley & Sons).

[8] = Blood and brain concentrations (rats), tail vein injection; assay type: in vivo, Long-Evans Hooded rats; settings: male, Long-Evans Hooded, rat, in vivo, 3 mg/kg, 3 mg/kg tail vein injection, read-out: Brain Concentration at 1 hr
Procedure: Long-Evans Hooded rats (Charles River: male, 230-300 g) were dosed with solutions of test compounds in PBS by tail vein injection. The dose for all compounds was 3 mg/kg. At one hour, the animals were anesthetized with isoflurane, and then euthanized by decapitation. Trunk blood was collected into a 1.5 mL microcentrifuge tube containing 15 U Heparin, and the plasma recovered after centrifugation. Brains were dissected, weighed, immediately chilled to 4° C., and homogenized using a PowerGen 125 homogenizer in five volumes of ice-cold 2% formic acid. Proteins were precipitated from plasma and brain homogenate with nine and five volumes respectively of ice-cold 2% formic acid and clarified by centrifugation. The supernatant was ultra-filtered by centrifugation through a 3K MWCO spin column (Pall Life Sciences), following the manufacturer's instructions. The concentration of compound in the ultra-filtrate was subjected to reverse-phase liquid chromatography using a 150×2.1 mm Agent C8 reverse-phase column on a Shimadzu Prominence LC, eluting the compounds with a gradient of 2% to 50% of acetonitrile+0.1% formic acid for all compounds. The concentration of the compound in the column effluent was measured using an Applied Biosystems API-3200 triple quadrupole mass spectrometer equipped with an electrospray sample injection system. The counts of the characteristic parent and product ions of each test compound were converted to concentration units by comparison with a standard curve.

[9] = system: muscarinic M3 receptors in the salivary glands; test: In vivo inositol phosphate increase in salivary glands, Example 44; set-up: species or system Long Evans Hooded rats; settings: rat, 3 mg/kg sc, 5 mmole/kg LiCl
Procedure: as §4, §5

| SMILES | metabolism in human liver microsomes (in words) [1] | rate of metabolism of S- versus R-enantiomer [1] | huM1/A9L Smax [2] | huM1/A9L ED50 relative to CCh* [2] | huM3/A9L Smax [3] | huM3/A9L ED50 relative to CCh* [3] | Loss at 6 hrs (%) [4] | Increase in Inositol Phosphate in Hippocampus/Control ([5]; 3 mg/kg) | huM1/A9L Smax [6] | huM1/A9L Potency relative to carbachol [6] | huM3/A9L Smax [7] | huM3/A9L Potency relative to carbachol [7] | PAMPA Permeability Coefficient (×10^6) (in vitro; 400 μM) | concentration at 1 h [8] | Increase in Inositol Phosphate in Salivary Gland/Control ([9]; 3 mg/kg) | Increase in Inositol Phosphate in Hippocampus/Control [5] | Papp at 24 h, 400 µM (in vitro; PAMPA, pH 7.4, 400 μM, read-out: PAMPA Permeability Coefficient (×10^6)) | Increase in Inositol Phosphate in Salivary Gland/Control [9] |
| --- | --- | --- | --- | --- | --- | --- | --- | --- | --- | --- | --- | --- | --- | --- | --- | --- | --- | --- |
| [2H]C([2H])([2H])c1noc([C@H]2CCCNC2)n1 [Compound 7a, S-(+)-3-D3-methyl-5-(piperidin-3-yl)-1,2,4-oxadiazole] | metabolized significantly less in human liver microsomes than in rat liver microsomes | metabolized faster than the R-enantiomers | 81% | +/− (+/− potency 0.5-2x CCh) | 76% | −− (−− potency <0.1x CCh) | – | – | – | – | – | – | – | – | – | – | – | – |
| [2H]C([2H])([2H])c1noc(C23CNC([2H])([2H])C2C3)n1 (stereo not shown) [Compound 137, 5-(6,6-d2-3-azabicyclo[3.1.0]hexan-1-yl)-3-methyl-1,2,4-oxadiazole] | – | – | – | – | – | – | 24% | 503% | 97% | 1.26 | 62% | 0.19 | 4.00 ×10^6 | 5.5 µM | 198% | – | – | – |
| [2H]C([2H])([2H])c1noc([C@@H]2CCCNC2)n1 [Compound 7b, R-(−)-3-D3-methyl-5-(piperidin-3-yl)-1,2,4-oxadiazole] | metabolized significantly less in human liver microsomes than in rat liver microsomes | – | 90% | + (+ potency 2-10x CCh) | 86% | +/− (+/− potency 0.5-2x CCh) | – | – | – | – | – | – | – | – | – | – | – | – |
| Cc1noc([C@@H]2CCCNC2)n1 [Compound 3b, R-(−)-3-methyl-5-(piperidin-3-yl)-1,2,4-oxadiazole] | metabolized significantly less in human liver microsomes than in rat liver microsomes | – | 147% | +/− (+/− potency 0.5-2x CCh) | 47% | − (− potency <0.5-0.1x CCh) | – | – | – | – | – | – | – | – | – | – | – | – |
| Cc1noc([C@H]2CCCNC2)n1 [Compound 3a, S-(+)-3-methyl-5-(piperidin-3-yl)-1,2,4-oxadiazole] | metabolized significantly less in human liver microsomes than in rat liver microsomes | metabolized faster than the R-enantiomers | 129% | + (+ potency 2-10x CCh) | 66% | +/− (+/− potency 0.5-2x CCh) | – | – | – | – | – | – | – | – | – | – | – | – |
| [2H]C([2H])([2H])c1noc(C23CNCC2C3)n1 (stereo not shown) [Compound 138, 5-(3-azabicyclo[3.1.0]hexan-1-yl)-3-methyl-d3-1,2,4-oxadiazole] | – | – | – | – | – | – | 29% | – | 93% | 1.34 | 43% | 0.37 | – | 5.5 µM | – | 357% | 4.1 ×10⁻⁶ cm/s | 217% |
